This is an account of results in patent US20100055116A1, “Methods and Compositions for Targeting c-Rel” (priority 2006, published 2010).

The subject of data set [1] is Pten-mutant and control B cells. The data set can be described thus: Mitochondrial potential by JC-1 staining. To be noted: anti-IgM treatment, within 12 hours. In kind it is cell-based, mouse. As for the experimental part: B cells were cultured to a density of 0.5−1.0×10^6 cells/ml. For each condition, 1 ml of cells was treated with the appropriate agent for the appropriate length of time as shown in FIG. 8C. Mitochondrial potential was assessed by using the fluorescent potentiometric dye JC-1 (5,5′,6,6′,-tetrachloro-1,1′,3,3′-tetraethylbenzimidazolylcarbocyanine iodide, Molecular Probe). JC-1 is a novel cationic carbocyanine dye that accumulates in mitochondria. The dye exists as a monomer at low concentrations and yields green fluorescence, similar to fluorescein. […] These characteristics make JC-1 a sensitive marker for mitochondrial membrane potential. Briefly, 0.3 ml of the cells were mixed with 0.3 ml of staining solution (complete medium containing 0.5 μg/1 ml JC-1). Cells were stained for 30 min in a 37° C. incubator (5% CO2). After staining, cells were collected at room temperature and washed once in 1×PBS. The cell pellet was then resuspended in PBS (pre-warmed to 37° C.), and JC-1 fluorescence was analyzed on a Becton-Dickinson FACS using Cell-Quest software.

A further data set relates to Pten-mutant B cells. The data set can be described thus: Proliferation and survival assays (CFSE, propidium iodide staining) with anti-IgM. To be noted: for division of Pten-mutant cells: 3 days of stimulation with BCR signal, CFSE. It is filed as cell-based, mouse. An excerpt:
Pten(+/−) mice and Pten^flox/+ mice (background strain C57/BL6) were provided by Dr. Pandolfi PP (Di Cristofano et al., 1999 Science 285:2122). To generate B cell-specific Pten-deficient mice, Pten^flox/+ mice were crossed with CD19^cre/+ transgenic mice (purchased from Jackson lab). Offspring carrying CD19^cre/+ and the floxed Pten mutation on both alleles (Pten^flox/flox CD19^Cre/+), and the wild-type Pten gene (Pten^+/+ CD19^Cre/+) were used for analysis as homozygous mutant, wild-type mice, respectively. The mice were maintained under specific pathogen-free conditions in the animal colony of Weill Medical college of Cornell University. Pten^flox/flox CD19^Cre/+ mice were crossed with c-Rel-deficient mice (Tumang et al., 1998 Eur J Immunol 28:4299) to generate the double deficient mice.
For propidium iodide staining assay, B-cells were cultured in 10 μg/ml anti-IgM or 10 μg/ml anti-CD40 or 10 μg/ml LPS. At the indicated time points, cells were collected and stained with a solution containing 50 μg/ml propidium iodide, 20 ng/ml RNase A, 0.1% Triton X-100, and 0.1% sodium citrate. Duplicate samples were then analyzed on a Becton-Dickinson FACS using Cell-Quest software, and the percentage of apoptotic cells (<2N DNA content) or S and G2/M phase cells (>2N DNA content) quantified. For ^3H-thymidine incorporation assays, B-cells were plated at 1×10^5 cells per well in 96-well U-bottomed plates and cultured in complete media containing RPMI 1640, 10% heat inactivated FCS (DeWned; Hyclone, Logan, Utah), 2 mM L-glutamine, 1 mM non-essential amino acids, 100 μg/ml, penicillin/streptomycin, and 5×10^−5 M/L^−1 mercaptoethanol at 37° C. and 5% CO2. Where indicated, cells were stimulated with 10 μg/ml goat anti-mouse IgM F(ab′)2 (anti-IgM, Jackson ImmunoResearch Laboratories), or 10 μg/ml anti-CD40 (mAb 1C 10), or 10 μg/ml LPS. Six hours prior to the indicated time points, cultures were incubated with 0.5 μCi/well thymidine (Amersham), and then harvested onto Whatman Filters to determine proliferative responses by thymidine incorporation. […]

For data set [2], the system named is immature B cells. The data set can be described thus: Anti-IgM induced apoptosis. In kind it is cell-based, mouse. As to conditions: 50 mM inhibitor. As for the experimental part:
Mature and immature B cells (>95% B220+) were isolated from untreated mice or sublethally irradiated mice by complement-mediated lysis and Percoll gradient as described previously, and cultured in RPMI 1640 media containing 10% fetal calf serum (FCS) (Cellgro), 1% penicillin, 1% streptomycin (both Life Sciences BRL), and 50 uM b-mercaptoethanol (Sigma). For caspase experiments, 2×10^6/ml B cells were plated per well in 24-well polystyrene flat-bottom plates (Corning) in 1000 ul of total culture volume. […]
The following antibodies were used for FACS analysis: anti-CD24 (HSA), anti-CD21, anti-IgD, anti-IgM, and anti-B220 (RA3-6B2), labeled with R-phycoerythrin (PE), FITC or Allophyocyanin (APC), all purchased from Pharmigen. […] Duplicate samples were then analyzed by FACS (Becton-Dickinson) using CellQuest software, and the percentage of apoptotic cells (<2N DNA content) or S and G2/M phase cells (>2N DNA content) quantified. For PIP3 assays, PIP3 levels were measured using a biotin-labeled antibody against anti-PI-3,4,5-P3 (a gift from Dr. Paul Neilsen, Echelon, Salt Lake City, Utah) and FACS following a published protocol.

Data set [3] concerns immature B cells. The data set can be described thus: BCR-induced mitochondrial depolarization, JC-1 staining. As to conditions: 50 mM inhibitor, anti-IgM. In kind it is cell-based, mouse. As for the experimental part: Mature and immature B cells (>95% B220+) were isolated from untreated mice or sublethally irradiated mice by complement-mediated lysis and Percoll gradient as described previously, and cultured in RPMI 1640 media containing 10% fetal calf serum (FCS) (Cellgro), 1% penicillin, 1% streptomycin (both Life Sciences BRL), and 50 uM b-mercaptoethanol (Sigma). For caspase experiments, 2×10^6/ml B cells were plated per well in 24-well polystyrene flat-bottom plates (Corning) in 1000 ul of total culture volume. The following combinations of agents were added for 12 hr or 24 hr at 37° C.: 10 mg/ml of goat anti-mouse IgM F(ab)2 (anti-IgM, Jackson ImmunoResearch Laboratories), 50 mM of z-VAD-fmk, a pan-caspase inhibitor, or 50 mM of z-LEHD-fmk, a specific […], or 50 mM of z-FA-fmk, a cathepsin B inhibitor (Enzyme System Products). For the PI3K assay, 5×10^6 B cells were plated per well in 24-well polystyrene flat-bottom plates (Corning) in 2 ml final culture volume, with 10 mg/ml of goat anti-mouse IgM F(ab′)2 added for the indicated time at 37° C. […]
Cells were cultured at a density of 0.5−1.0×10^6 cells/ml. […] The dye exists as a monomer at low concentrations and yields green fluorescence, similar to fluorescein. […] The cell pellet was then resuspended in PBS, and JC-1 fluorescence analyzed by FACS.

Data set [4] has as its target T1, c-Rel (homodimer) (Homo sapiens, UniProt Q04864 Q04864:2-619).
T1 sequence: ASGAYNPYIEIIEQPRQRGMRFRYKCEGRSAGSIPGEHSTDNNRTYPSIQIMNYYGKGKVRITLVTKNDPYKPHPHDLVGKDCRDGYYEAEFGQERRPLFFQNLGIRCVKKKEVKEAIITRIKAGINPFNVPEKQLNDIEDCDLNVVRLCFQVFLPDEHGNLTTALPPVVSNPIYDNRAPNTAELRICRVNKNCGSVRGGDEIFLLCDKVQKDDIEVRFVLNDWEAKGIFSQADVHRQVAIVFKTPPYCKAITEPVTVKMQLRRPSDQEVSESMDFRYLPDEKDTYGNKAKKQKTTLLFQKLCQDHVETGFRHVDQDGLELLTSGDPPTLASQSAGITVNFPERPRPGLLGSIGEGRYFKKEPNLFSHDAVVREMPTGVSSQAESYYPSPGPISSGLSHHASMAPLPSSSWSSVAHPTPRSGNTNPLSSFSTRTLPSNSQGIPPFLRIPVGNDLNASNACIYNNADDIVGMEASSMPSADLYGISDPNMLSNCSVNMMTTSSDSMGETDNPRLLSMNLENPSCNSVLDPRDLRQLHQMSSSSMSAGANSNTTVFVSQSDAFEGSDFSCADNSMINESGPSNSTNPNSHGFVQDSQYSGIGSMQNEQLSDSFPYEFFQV
The data set can be described thus: competition; unlabeled CD28RE returns FP to basal level at 128 nM. As to conditions: tags: C-terminal His, E. coli BL-21 Lys (DE3); full-length or subdomain (not specified); chain copies: 2 stated. As for the experimental part: (§1) According to the EMSA data, the concentrations of FITC-labeled DNA probe and c-Rel protein used in FP screen assay were optimized. Initially, the fluorescently labeled probe was added in different concentrations (5 nM, 10 nM, 100 nM) while c-Rel protein concentration (2000 nM) was constant, and the reactions were incubated for 15-30 minutes at room temperature, and then transferred to the wells of 384-well plate (20 μl/well). The FP values were measured using FUSION Universal Microplate Analyzer (Perkin Elmer, PE). […] In most cases, there is an increase in FP, with FP signals saturated in the presence of 128 nM of c-Rel. The dissociation constant (Kd) calculated using this method is larger than that observed using EMSA.
To exclude the possibility that non-specific interaction of c-Rel protein with DNA molecules contributes to the increase in FP value, a cold competition experiment was performed. […] However, a control DNA molecule, the unlabeled Oct1 (20 mers) in the same conditions as applied to the cold CD28RE probe, had no effect on FP value. Thus, this assay specifically and quantitatively measured interactions in the interface between c-Rel protein and CD28 RE.

Data set [5] concerns the target T1, c-Rel (homodimer). The data set can be described thus: FP; 10 nM probe; FP saturated at 128 nM c-Rel; Kd said to be larger than by EMSA but no number in text; abolished by GST-IkBa. As to conditions: tags: C-terminal His, E. coli BL-21 Lys (DE3); full-length or subdomain (not specified); chain copies: 2 stated; label: 5'-FITC. As for the experimental part:
as §1
It was next investigated whether this assay could detect a known endogenous inhibitor (IkBα) of c-Rel activity. […] Recombinant GST-IkBα previously generated (final concentration is 150 nM) was added to a binding reaction consisting of 10 nM FITC-CD28RE and 100 nM c-Rel. […] Thus, this assay detected specific inhibitors that function by directly binding c-Rel protein and inducing a conformation change. Moreover, consistent with the scatter data distribution shown in FIG. 3d, z factor, one assay performance indicator, was also evaluated. […]
In general terms: In EMSA bound probe runs differently from free probe, usually more slowly.

Peptide text beside a SMILES is read from it. * marks the point of attachment. Cbz = O=C(OCc1ccccc1)*; CH2F = FC*

Regarding `CC(C)C[C@H](NC(=O)[C@H](Cc1ccccc1)NC(=O)c1cnccn1)B(O)O` [Velcade], the mitochondrial depolarization result in data set [1] is listed as “mitochondrial depolarization”. In addition, in the data set on Pten-mutant B cells, the “division of Pten-mutant cells” value is listed as “completely blocked”. `CC(NC(=O)[C@H](Cc1ccccc1)NC(=O)OCc1ccccc1)C(=O)CF` (stereo partly shown) [z-FA-fink]: in the data set with immature B cells [2], the anti-IgM induced apoptosis result is listed as “failed to inhibit”. Consider `Cc1ccc(S(=O)(=O)/C=C/C#N)cc1` [Bay 11], for which, in data set [1], the mitochondrial depolarization result is recorded as “mitochondrial depolarization”. Also, in the data set on Pten-mutant B cells, the “division of Pten-mutant cells” value is reported as “completely blocked”. The cell apoptosis entry in the data set with Pten-mutant B cells (propidium iodine staining) was “significant cell apoptosis”. Take `COC(=O)C[C@H](NC(=O)[C@H](C)NC(=O)[C@@H](NC(=O)OCc1ccccc1)C(C)C)C(=O)CF` [z-VAD-fmk] (Cbz-Val-Ala-Asp(OMe)-CH2F): in the data set on immature B cells [3], the “BCR-induced changes in DY (mitochondrial membrane potential)” value is listed as “Neither inhibitor reversed”. On the same count and under the same terms, the same measure for `COC(=O)CC[C@H](NC(=O)[C@H](CC(C)C)NC(=O)OCc1ccccc1)C(=O)N[C@@H](Cc1cnc[nH]1)C(=O)N[C@@H](CC(=O)OC)C(=O)CF` [z-LEHD-fmk] (Cbz-LE(OMe)HD(OMe)-CH2F): “Neither inhibitor reversed”.

B1: CD28RE EMSA probe/unlabeled competitor (dsDNA)
DNA 1: TCTGGAATTTCTTTAAACCC
DNA 2: GGGTTTAAAGAAATTCCAGA
With B1, the binding result with c-Rel (homodimer) [4] is “binds”.

B2: CD28RE kB site 20-mer FITC probe (dsDNA)
DNA 1: TCTGGAATTTCTTTAAACCC
DNA 2: GGGTTTAAAGAAATTCCAGA
Take B2: in the data set with c-Rel (homodimer) [5], the binding result is recorded as “binds”.
